Experimental data: patent US12551562B2, “Methods and compositions for irreversible enzyme inhibition” (TRITERPENOID THERAPEUTICS, INC., priority 2019, dated 2026)

How the values were obtained:
His-GSTP = molecular target: T1, His-GSTP (Homo sapiens, UniProt P09211); assay: Modification of His-GSTP by triterpenoids, LC-MS/MS of tryptic digests; format: binding
T1 construct: made in house; host or cells: E. coli
Protocol: His-GSTP was expressed in E. coli as described previously. Purified His-GSTP captured on nickel beads was incubated with a range of concentrations of CDDO-Im (50 nM-10 μM) in phosphate buffer, pH 7.4 for 16 h. CDDO-Me (0.5 mM) was used as a positive control. The beads were then washed 5 times with 1000 μL phosphate buffer. The protein was subjected to on-bead tryptic digestion. In brief, a suspension beads in 30 μL of 50 mM ammonium bicarbonate buffer was incubated with 20 ng of trypsin for 16 h at 37° C. and the digest was analyzed by LC-MS/MS.
(§1) The tryptic peptides were analyzed by a Triple TOF 5600 mass spectrometer (Sciex). Samples were reconstituted in 50 μL 0.1% formic acid (FA) and 2 μL of samples were delivered into the instrument using an Eksigent Nano-LC system mounted with a nanoACQUITY UPLC Symmetry C18 Trap Column and an analytical BEH C18 nanoACQUITY Column (Waters, MA, USA). A NanoSpray III source was fitted with a 10 μm inner diameter PicoTip emitter (New Objective). Samples were loaded in 0.1% formic acid onto the trap, which was then washed with 2% ACN/0.1% FA for 10 min at 2 μL/min before switching in-line with the analytical column. A gradient of 2-50% (v/v) ACN/0.1% (v/v) FA over 90 min was applied to the column at a flow rate of 300 nL/min. Spectra were acquired automatically in positive ion mode using information-dependent acquisition, using mass ranges of 400-1600 amu in MS and 100-1400 amu in MS/MS. Up to 25 MS/MS spectra were acquired per cycle (approximately 10 Hz) using a threshold of 100 counts per s, with dynamic exclusion for 12 s and rolling collision energy. Sequence coverage was determined using ProteinPilot software, v4.0 and the most recent version of the SwissProt database.

recombinant Keap1 = molecular target: T2, recombinant Keap1 (Homo sapiens, UniProt Q14145); assay: Modification of Keap1 by triterpenoids, LC-MS/MS of tryptic digests; format: binding; conditions: 100 μM, 16 h
T2 construct: made in house
Protocol: Triterpenoids were dissolved in DMSO to make up 1 mM stock solutions, followed by dilutions in phosphate buffer (10 mM, pH 7.4) and incubated with recombinant Keap1 proteins produced in house at 37° C. for 16 h. The final concentration of triterpenoids was 100 μM. The mixture was then purified by 1D-gel electrophoresis using an established protocol, followed by in gel-digestion. The digests were further purified by C18-ziptiping and analyzed by LC-MS/MS.
as §1, with “Spectra were acquired automatically in positive ion mode using information-dependent acquisition, using mass ranges of 400-1600 amu in MS and 100-1400 amu in MS/MS. Up to 25 MS/MS spectra were acquired per cycle (approximately 10 Hz) using a threshold of 100 counts per s, with dynamic exclusion for 12 s and rolling collision energy.” left out

HSA = molecular target: T3, HSA (Homo sapiens, UniProt P02768); assay: Modification of HSA by triterpenoids, LC-MS/MS of tryptic digests; format: binding
T3 construct: contains 585 amino acids (corresponding to 25-609 of P02768); purchased Sigma-Aldrich
Protocol: Triterpenoids were dissolved in DMSO to make up 1 mM stock solutions, followed by dilutions in phosphate buffer (10 mM, pH 7.4) and incubated with recombinant HSA (0.6 mM, 50 μL) in sealed Eppendorf tubes at 37° C. for 16 h. The molar ratios of drug to protein were 0.00001:1, 0.0001:1, 0.001:1, 0.01:1, 0.1:1, and 1:1. Protein was precipitated twice with 9 volumes of ice-cold methanol to remove free drug, resuspended in 50 μL phosphate buffer and then reduced with 10 mM dithiothreitol (15 min) and alkylated with 55 mM iodoacetamide (15 min) at room temperature. The protein was precipitated with methanol once more and finally dissolved in 100 μL 50 mM ammonium hydrogencarbonate, and 165 μg […] of protein was digested with 1.6 μg trypsin overnight at 37° C.
To examine the time-dependent modification of HSA by triterpenoids, 10 μM triterpenoids was incubated with HSA (0.6 mM, 300 μL) at 37° C. Aliquots of 50 μL were removed after 10, 30, 60, and 180 minutes and processed for LC-MS/MS analysis.
(§2) The tryptic peptides were analyzed by a Triple TOF 5600 mass spectrometer (Sciex). […] Sequence coverage was determined using ProteinPilot software, v4.0 and the most recent version of the SwissProt database.

[1] = test system: Epstein-Barr virus-transformed B-cell lines; assay: Modification of B cell intracellular proteins by triterpenoids, proteomics LC-MS/MS; format: cell-based, human
Protocol: Epstein-Barr virus-transformed B-cell lines were generated with previously described methods by incubating PBMC with supernatant from the Epstein-Barr virus-producing cell line B9-58. B cells were maintained in F1 medium at 37° C., 5% CO2. Cells were plated into an 8-well plate at a concentration of 1×10^6 cells/ml and treated with triterpenoids at different concentrations (0, 1, 10 μM) for 16 hours. 200 μL cells were then plated (1×10^5 cells/well) into a 96-well plate, [^3H]-thymidine (0.5 μCi/well) was then added and incubated for 16 hours. Cell was harvested and the proliferative responses were measured by [^3H]-thymidine incorporation. For the remaining cells, supernatants were removed for ELISA (TNFα, IL10, and IFNγ) and proteomics analysis. The cells were then washed in PBS and lysed with 2D lysis buffer (40 mM Tris base, 7M urea, 2M thiourea, 4% (w/v) CHAPS, and 1% DTT). Cell lysates were sonicated and centrifuged at 18000 rpm for 20 minutes at […]. Supernatants were collected and the protein concentrations were measured by BCA assay. Proteins were denatured and processed for mass spectrometric analysis.
as §2

LONP protein = molecular target: T4, LONP protein (Homo sapiens, UniProt P36776); assay: Modification of LONP by triterpenoids, LC-MS/MS of tryptic digests; format: binding; conditions: 100 μM, 16 h; lysine (3), cysteine (3), tyrosine (2)
T4 construct: Professor John Letterio (supplied; not a vendor)
T4 sequence (P36776 68-959): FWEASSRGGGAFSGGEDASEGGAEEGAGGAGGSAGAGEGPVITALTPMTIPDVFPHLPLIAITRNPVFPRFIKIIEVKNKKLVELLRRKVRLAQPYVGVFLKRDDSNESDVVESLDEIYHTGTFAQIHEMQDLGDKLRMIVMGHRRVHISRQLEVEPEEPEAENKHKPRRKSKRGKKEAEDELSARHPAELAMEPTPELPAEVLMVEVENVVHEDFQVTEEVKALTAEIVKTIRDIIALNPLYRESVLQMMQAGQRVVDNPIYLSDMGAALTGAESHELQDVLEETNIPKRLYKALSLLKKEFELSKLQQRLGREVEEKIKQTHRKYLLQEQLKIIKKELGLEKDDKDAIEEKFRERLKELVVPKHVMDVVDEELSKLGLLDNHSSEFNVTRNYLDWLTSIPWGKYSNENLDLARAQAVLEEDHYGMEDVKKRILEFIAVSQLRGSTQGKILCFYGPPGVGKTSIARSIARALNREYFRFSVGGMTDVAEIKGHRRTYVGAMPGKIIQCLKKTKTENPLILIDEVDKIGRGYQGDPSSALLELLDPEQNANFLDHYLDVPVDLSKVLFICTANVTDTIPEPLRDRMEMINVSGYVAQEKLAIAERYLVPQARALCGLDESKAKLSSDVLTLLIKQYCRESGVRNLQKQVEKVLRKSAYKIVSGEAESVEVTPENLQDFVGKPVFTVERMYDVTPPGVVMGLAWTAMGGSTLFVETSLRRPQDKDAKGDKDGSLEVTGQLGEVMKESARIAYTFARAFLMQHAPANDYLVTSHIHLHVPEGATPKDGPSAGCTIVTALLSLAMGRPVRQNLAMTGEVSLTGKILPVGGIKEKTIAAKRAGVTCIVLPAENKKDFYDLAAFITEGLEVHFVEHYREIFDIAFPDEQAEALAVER
Protocol: The LONP protein (Professor John Letterio) was first purified by buffer exchange using spin filters (3K MWCO). 10 μg protein was then incubated with CDDO-2P-Im (100 μM) in phosphate buffer (10 mM, pH 7.4) at 37° C. for 16 h. The mixture was then purified by 1D-gel electrophoresis using an established protocol, followed by in gel-digestion. The digests were further purified by C18-ziptiping and analyzed by LC-MS/MS.
as §1, with “Spectra were acquired automatically in positive ion mode using information-dependent acquisition, using mass ranges of 400-1600 amu in MS and 100-1400 amu in MS/MS. Up to 25 MS/MS spectra were acquired per cycle (approximately 10 Hz) using a threshold of 100 counts per s, with dynamic exclusion for 12 s and rolling collision energy.” left out

T1 sequence (P09211 whole entry): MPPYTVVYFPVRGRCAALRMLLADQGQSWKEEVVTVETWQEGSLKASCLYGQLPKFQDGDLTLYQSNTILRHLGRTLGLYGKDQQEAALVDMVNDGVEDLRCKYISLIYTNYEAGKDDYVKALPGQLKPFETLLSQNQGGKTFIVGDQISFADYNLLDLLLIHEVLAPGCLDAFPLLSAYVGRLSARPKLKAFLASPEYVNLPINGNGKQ
T2 sequence (Q14145 whole entry): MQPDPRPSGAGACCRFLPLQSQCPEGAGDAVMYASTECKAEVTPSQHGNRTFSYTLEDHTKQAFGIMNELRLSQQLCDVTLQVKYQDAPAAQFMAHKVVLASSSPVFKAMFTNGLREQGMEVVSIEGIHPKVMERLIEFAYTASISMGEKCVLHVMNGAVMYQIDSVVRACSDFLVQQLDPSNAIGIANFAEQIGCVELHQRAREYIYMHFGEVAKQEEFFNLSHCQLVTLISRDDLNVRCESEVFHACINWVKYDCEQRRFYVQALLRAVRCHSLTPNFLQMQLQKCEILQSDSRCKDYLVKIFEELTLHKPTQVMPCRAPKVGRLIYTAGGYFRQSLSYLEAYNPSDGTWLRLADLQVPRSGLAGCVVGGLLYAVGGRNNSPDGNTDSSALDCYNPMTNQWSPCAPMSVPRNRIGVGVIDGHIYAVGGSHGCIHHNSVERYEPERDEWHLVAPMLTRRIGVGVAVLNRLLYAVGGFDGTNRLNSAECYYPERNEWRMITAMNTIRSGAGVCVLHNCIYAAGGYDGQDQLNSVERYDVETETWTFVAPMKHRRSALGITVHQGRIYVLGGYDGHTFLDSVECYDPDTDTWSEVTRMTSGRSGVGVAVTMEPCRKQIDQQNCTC
T3 sequence (P02768 25-609): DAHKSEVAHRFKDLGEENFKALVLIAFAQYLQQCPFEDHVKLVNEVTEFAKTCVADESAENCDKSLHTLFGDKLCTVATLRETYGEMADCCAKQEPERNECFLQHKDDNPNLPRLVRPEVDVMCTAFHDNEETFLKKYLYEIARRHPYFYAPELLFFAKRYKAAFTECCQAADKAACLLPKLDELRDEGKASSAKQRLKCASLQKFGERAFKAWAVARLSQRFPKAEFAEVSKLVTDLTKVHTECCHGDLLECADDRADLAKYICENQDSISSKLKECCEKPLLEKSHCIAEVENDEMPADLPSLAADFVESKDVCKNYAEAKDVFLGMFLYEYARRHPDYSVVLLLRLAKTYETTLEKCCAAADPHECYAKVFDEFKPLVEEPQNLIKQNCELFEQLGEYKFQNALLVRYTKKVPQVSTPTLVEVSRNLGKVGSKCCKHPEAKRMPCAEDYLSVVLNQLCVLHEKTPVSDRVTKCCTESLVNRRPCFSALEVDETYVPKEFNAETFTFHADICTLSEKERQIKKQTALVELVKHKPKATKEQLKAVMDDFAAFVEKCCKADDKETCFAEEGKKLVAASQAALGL

| covalent binding to GSTP, dependence on concentration (His-GSTP; 16 hour incubation at 37° C.) | plateau of binding to GSTP (His-GSTP; in comparison to CDDO-Im, 16 hour incubation at 37° C., FIG. 1C/1D) | preferred binding site on GSTP (His-GSTP; increasing drug concentrations, 16 hour incubation at 37° C., FIG. 1D) | modification of Cys151 of Keap1 (recombinant Keap1) | number of binding sites identified on Keap1 (recombinant Keap1; phosphate buffer pH 7.4) | number of CDDO-modified HSA peptides (HSA; 500 μM, 16 h, lysine (9), arginine (2), serine (7), tyrosine (5)) | number of modified LONP peptides (LONP protein) | lowest concentration at which adducts with GSTP were detectable (His-GSTP; phosphate buffer pH 7.4, 16 h, 50 nM-10 μM tested) | site of the simple Michael adduct (CDDO carboxylate, +491.5 amu) on GSTP (His-GSTP; tryptic digests of treated GSTP) | modification of HSA, dependence on concentration and time (HSA; normalized ion counts of modified peptides) | Compound | number of modified B cell proteins identified ([1]; 10 μM for 16 hours) | modification of the 4 active cysteine residues of PPIA ([1]; B cells treated with 10 μM for 16 hours) |
| --- | --- | --- | --- | --- | --- | --- | --- | --- | --- | --- | --- | --- |
| bind to GSTP in a similar manner | binding does not plateau above 5 μM | Cys48 | not detected | 8 | 23 | 8 | – | – | – | CC1(C)CC[C@]2(C(=O)n3cnc(-c4ccccn4)c3)CC[C@]3(C)[C@H](C(=O)C=C4[C@@]5(C)C=C(C#N)C(=O)C(C)(C)[C@@H]5CC[C@]43C)[C@@H]2C1 [CDDO-2P-Im, 1-[2-Cyano-3,12-dioxooleana-1,9(11)-dien-28-oyl]-4(-pyridin-2-yl)-1H-imidazole] | 32 | all modified |
| concentration-dependent | – | – | – | – | – | – | 50 nM | only detected on Cys48 | concentration- and time-dependent | CC1(C)CC[C@]2(C(=O)n3ccnc3)CC[C@]3(C)[C@H](C(=O)C=C4[C@@]5(C)C=C(C#N)C(=O)C(C)(C)[C@@H]5CC[C@]43C)[C@@H]2C1 [CDDO-Im, 1-(2-cyano-3,12-dioxooleana-1,9(11)-dien-28-oyl) imidazole] | – | – |
